# Results reported in ChEMBL document CHEMBL4024706 (Eur J Med Chem, 2017).
# Active and inactive are the calls of the source. No cut-off for these calls is given here.
# Key:
# [1] = biological target: Tyrosine-protein kinase BTK (Homo sapiens, UniProt Q06187); assay: Inhibition of full length recombinant human N-terminal His tagged […] expressed in baculovirus infected Sf9 insect cells using poly (Glu,Tyr)4:1 as substrate pretreated for 60 mins followed by substrate addition after 1 hr by ADP-Glo luminescence assay
# Sequence of Tyrosine-protein kinase BTK (Q06187 whole entry): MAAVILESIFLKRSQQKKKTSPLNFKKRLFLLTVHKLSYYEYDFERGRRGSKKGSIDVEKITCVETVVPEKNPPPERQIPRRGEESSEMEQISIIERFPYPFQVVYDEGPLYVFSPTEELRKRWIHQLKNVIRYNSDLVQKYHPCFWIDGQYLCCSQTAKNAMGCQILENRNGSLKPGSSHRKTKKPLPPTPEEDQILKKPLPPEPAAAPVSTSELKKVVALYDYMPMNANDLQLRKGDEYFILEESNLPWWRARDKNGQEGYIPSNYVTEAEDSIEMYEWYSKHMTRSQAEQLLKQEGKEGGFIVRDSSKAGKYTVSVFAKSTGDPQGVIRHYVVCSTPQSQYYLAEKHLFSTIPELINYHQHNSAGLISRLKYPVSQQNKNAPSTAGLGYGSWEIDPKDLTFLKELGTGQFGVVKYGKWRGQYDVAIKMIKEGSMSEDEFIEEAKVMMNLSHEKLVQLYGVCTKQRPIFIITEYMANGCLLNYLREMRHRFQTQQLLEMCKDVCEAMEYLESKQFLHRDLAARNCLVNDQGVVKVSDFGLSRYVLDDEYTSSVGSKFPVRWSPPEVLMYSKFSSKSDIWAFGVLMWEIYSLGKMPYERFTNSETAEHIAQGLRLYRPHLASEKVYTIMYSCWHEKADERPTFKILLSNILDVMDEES
# [2] = biological target: T1, Tyrosine-protein kinase JAK3 (Homo sapiens, UniProt P52333); assay: Inhibition of recombinant human N-terminal GST-tagged JAK3 (781 to end residues) expressed in baculovirus infected Sf9 insect cells using poly (Glu,Tyr)4:1 as substrate pretreated for 60 mins followed by substrate addition after 1 hr by ADP-Glo luminescence assay
# T1 sequence (P52333 whole entry): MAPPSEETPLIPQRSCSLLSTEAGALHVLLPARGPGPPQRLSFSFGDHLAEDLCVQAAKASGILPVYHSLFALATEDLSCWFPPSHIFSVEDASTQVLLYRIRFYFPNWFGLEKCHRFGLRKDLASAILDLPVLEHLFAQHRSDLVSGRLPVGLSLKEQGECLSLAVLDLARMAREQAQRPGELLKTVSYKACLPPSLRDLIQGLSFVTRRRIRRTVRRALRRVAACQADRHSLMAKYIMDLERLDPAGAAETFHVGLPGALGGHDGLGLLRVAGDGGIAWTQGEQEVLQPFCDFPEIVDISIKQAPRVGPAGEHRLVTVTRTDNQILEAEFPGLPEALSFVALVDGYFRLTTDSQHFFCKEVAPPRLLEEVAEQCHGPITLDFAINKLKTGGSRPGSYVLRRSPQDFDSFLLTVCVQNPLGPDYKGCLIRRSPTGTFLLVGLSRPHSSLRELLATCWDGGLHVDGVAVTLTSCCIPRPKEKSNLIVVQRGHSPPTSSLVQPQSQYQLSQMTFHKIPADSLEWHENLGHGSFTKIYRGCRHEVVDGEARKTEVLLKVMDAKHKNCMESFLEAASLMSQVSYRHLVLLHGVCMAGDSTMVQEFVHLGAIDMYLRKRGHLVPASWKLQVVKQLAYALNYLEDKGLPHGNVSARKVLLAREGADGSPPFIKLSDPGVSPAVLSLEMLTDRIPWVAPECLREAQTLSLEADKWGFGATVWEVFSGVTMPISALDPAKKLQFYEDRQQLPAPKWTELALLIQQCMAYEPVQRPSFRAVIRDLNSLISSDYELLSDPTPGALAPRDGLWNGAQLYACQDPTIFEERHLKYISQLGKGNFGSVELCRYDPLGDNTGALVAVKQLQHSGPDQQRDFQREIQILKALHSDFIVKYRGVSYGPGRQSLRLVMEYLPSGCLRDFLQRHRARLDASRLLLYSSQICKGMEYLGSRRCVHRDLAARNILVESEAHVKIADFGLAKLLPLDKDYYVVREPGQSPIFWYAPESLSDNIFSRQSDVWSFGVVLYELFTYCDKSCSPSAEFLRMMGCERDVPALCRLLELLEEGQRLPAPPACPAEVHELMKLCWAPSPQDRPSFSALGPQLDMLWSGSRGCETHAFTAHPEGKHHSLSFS
# [3] = biological target: Epidermal growth factor receptor (Homo sapiens, UniProt P00533); assay: Inhibition of recombinant human N-terminal GST-tagged wild-type EGFR (695 to end residues) expressed in baculovirus infected Sf9 insect cells using poly (Glu,Tyr)4:1 as substrate pretreated for 60 mins followed by substrate addition after 1 hr by ADP-Glo luminescence assay
# Sequence of Epidermal growth factor receptor (P00533 whole entry): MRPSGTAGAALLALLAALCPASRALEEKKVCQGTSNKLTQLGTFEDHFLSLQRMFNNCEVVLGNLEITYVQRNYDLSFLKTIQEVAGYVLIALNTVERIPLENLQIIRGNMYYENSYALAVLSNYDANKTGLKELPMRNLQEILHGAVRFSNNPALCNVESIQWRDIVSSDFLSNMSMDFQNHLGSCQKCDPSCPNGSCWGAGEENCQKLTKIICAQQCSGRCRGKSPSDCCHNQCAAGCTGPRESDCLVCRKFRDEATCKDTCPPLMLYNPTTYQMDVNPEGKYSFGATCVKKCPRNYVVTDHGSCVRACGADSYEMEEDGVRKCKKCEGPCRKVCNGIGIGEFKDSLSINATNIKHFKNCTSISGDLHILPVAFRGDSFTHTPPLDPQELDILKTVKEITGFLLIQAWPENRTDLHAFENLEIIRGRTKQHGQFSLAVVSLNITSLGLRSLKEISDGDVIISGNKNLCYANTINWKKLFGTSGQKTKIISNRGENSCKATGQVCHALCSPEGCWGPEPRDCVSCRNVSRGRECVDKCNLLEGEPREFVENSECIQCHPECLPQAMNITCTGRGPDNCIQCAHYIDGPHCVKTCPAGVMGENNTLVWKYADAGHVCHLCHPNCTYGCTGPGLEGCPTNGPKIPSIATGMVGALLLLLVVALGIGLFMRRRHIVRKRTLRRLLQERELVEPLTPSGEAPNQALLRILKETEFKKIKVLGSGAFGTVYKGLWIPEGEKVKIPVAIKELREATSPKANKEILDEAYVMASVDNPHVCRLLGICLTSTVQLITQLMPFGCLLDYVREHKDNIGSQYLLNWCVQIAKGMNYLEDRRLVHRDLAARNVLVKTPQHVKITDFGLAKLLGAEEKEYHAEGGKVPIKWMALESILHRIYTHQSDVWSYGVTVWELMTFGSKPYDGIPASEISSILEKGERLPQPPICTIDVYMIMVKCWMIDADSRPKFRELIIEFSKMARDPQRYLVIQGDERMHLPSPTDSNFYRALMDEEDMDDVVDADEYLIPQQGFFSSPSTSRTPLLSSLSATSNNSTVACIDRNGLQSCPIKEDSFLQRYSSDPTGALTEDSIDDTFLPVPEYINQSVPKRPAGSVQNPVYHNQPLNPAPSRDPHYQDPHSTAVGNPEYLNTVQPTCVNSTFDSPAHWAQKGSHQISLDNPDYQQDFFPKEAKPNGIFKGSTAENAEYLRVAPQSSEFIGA
# SU-DHL-2 = assay: Growth inhibition of human SU-DHL-2 cells; format: functional
# MV4-11 = assay: Growth inhibition of human MV411 cells; format: functional
# U2932 [4] = assay: Growth inhibition of human U2932 cells; format: functional
# Ramos = assay: Growth inhibition of human Ramos cells; format: functional
# OCI-AML-3 = assay: Growth inhibition of human OCI-AML3 cells; format: functional
# Pfeiffer [5] = assay: Growth inhibition of human Pfeiffer cells; format: functional
# U-937 = assay: Growth inhibition of human U937 cells; format: functional
# NB-4 = assay: Growth inhibition of human NB4 cells; format: functional
# SKM-1 = assay: Growth inhibition of human SKM1 cells; format: functional
# [6] = Growth inhibition of human M07e cells; format: functional
# PBMC = assay: Cytotoxicity against PBMC (unknwon origin); format: cell-based
# Pfeiffer [7] = assay: Cell cycle arrest in human Pfeiffer cells assessed as increase in accumulation at G0/G1 phase at 10 uM after 48 hrs by propidium iodide/RNase staining based flow cytometric method; format: functional
# U2932 [8] = assay: Cell cycle arrest in human U2932 cells assessed as increase in accumulation at G0/G1 phase at 10 uM after 48 hrs by propidium iodide/RNase staining based flow cytometric method; format: functional
Compound,IC50 [1] [nM],also measured
C=CC(=O)Nc1cc(Nc2cc(-c3cccc(NC(=O)c4cc(OC)c(OC)c(OC)c4)c3C)cn(C)c2=O)ccc1C(=O)N1CCOCC1,1430,–
C=CC(=O)Nc1cc(Nc2cc(-c3cccc(NC(=O)c4ccc(C(C)(C)C)cc4)c3C)cn(C)c2=O)ccc1C(=O)N(C)C,34,–
C=CC(=O)Nc1cc(Nc2cc(-c3cccc(NC(=O)c4ccc(N5CCOCC5)cc4)c3C)cn(C)c2=O)ccc1C(=O)N1CCOCC1,273,–
C=CC(=O)Nc1cc(Nc2cc(-c3cccc(NC(=O)c4ccc5c(c4)OCCO5)c3C)cn(C)c2=O)ccc1C(=O)N1CCOCC1,89,–
C=CC(=O)Nc1cc(Nc2cc(-c3cccc(NC(=O)c4ccc(C(C)(C)C)cc4)c3C)cn(C)c2=O)ccc1C(=O)N1CCCC(O)C1 (stereo unspecified),21,–
C=CC(=O)Nc1cccc(Nc2nc(Nc3ccc(Oc4ccnc(C(=O)NC)c4)cc3)ncc2F)c1,–,IC50 [2]: 1530 nM
C=CC(=O)Nc1cc(Nc2cc(-c3cccc(NC(=O)c4ccc(C(F)(F)F)cc4)c3C)cn(C)c2=O)ccc1C(=O)N1CCOCC1,76,–
C=CC(=O)Nc1cc(Nc2cc(-c3cccc(NC(=O)c4ccc(C(C)C)cc4)c3C)cn(C)c2=O)ccc1C(=O)N1CCOCC1,32,–
C=CC(=O)Nc1cc(Nc2cc(-c3cccc(NC(=O)c4ccc(N5CCCC5)cc4)c3C)cn(C)c2=O)ccc1C(=O)N1CCOCC1,86,–
C=CC(=O)Nc1cc(Nc2cc(-c3cccc(NC(=O)c4ccc(C(C)(C)C)cc4)c3C)cn(C)c2=O)ccc1C(=O)N1CCN(C)CC1,127,–
C=CC(=O)Nc1cc(Nc2cc(-c3cccc(NC(=O)c4ccc5c(c4)CCCC5)c3C)cn(C)c2=O)ccc1C(=O)N1CCOCC1,57,–
C=CC(=O)Nc1cccc(Nc2cc(-c3cccc(NC(=O)c4ccc(C(C)(C)C)cc4)c3C)cn(C)c2=O)c1,> 10000,–
C=CC(=O)NC1CCCC(Nc2cc(-c3cccc(NC(=O)c4ccc(N(C)C)cc4)c3C)cn(C)c2=O)C1 (stereo unspecified),2950,–
C=CC(=O)Nc1cc(Nc2cc(-c3cccc(NC(=O)c4ccc(C(C)(C)C)cc4)c3C)cn(C)c2=O)ccc1C(=O)OC,197,–
C=CC(=O)Nc1cc(Nc2cc(-c3cccc(NC(=O)c4ccc(N(C)C)cc4)c3C)cn(C)c2=O)ccc1C(=O)N1CCC(O)CC1,187,–
C=CC(=O)Nc1cc(Nc2cc(-c3cccc(NC(=O)c4ccc(C(C)(C)C)cc4)c3C)cn(C)c2=O)ccc1C(=O)N1CCC(OC)CC1,65,–
C=CC(=O)Nc1cc(C(=O)N2CCOCC2)ccc1Nc1cc(-c2cccc(NC(=O)c3ccc(C(C)(C)C)cc3)c2C)cn(C)c1=O,231,–
C=CC(=O)Nc1cc(Nc2cc(-c3cccc(NC(=O)c4ccccc4)c3C)cn(C)c2=O)ccc1C(=O)N1CCOCC1,3740,–
C=CC(=O)N1CCc2ccc(-n3c(=O)ccc4cnc5ccc(-c6cnn(C)c6)cc5c43)cc21,–,IC50 [2]: 3340 nM; IC50 [3]: 874 nM
C=CC(=O)N1CCC(Nc2cc(-c3cccc(NC(=O)c4ccc(N(C)C)cc4)c3C)cn(C)c2=O)CC1,> 10000,–
C=CC(=O)Nc1cc(Nc2cc(-c3cccc(NC(=O)c4ccc(N(C)C)cc4)c3C)cn(C)c2=O)ccc1C(=O)N1CCC(OC)CC1,596,–

Compound,IC50 [1] [nM],also measured
C=CC(=O)NC1CCCN(c2cc(-c3cccc(NC(=O)c4ccc(N(C)C)cc4)c3C)cn(C)c2=O)C1 (stereo unspecified),> 10000,–
C=CC(=O)Nc1cccc(Nc2nc(Nc3ccc(OCCOC)cc3)ncc2F)c1 [SPEBRUTINIB],–,IC50 [2]: 1750 nM; IC50 [3]: 442 nM
C=CC(=O)Nc1cc(Nc2cc(-c3cccc(NC(=O)c4ccc(C(C)(C)C)cc4)c3C)cn(C)c2=O)ccc1C,365,–
C=CC(=O)Nc1cc(Nc2cc(-c3cccc(NC(=O)c4ccc(C)c(C(F)(F)F)c4)c3C)cn(C)c2=O)ccc1C(=O)N1CCOCC1,1260,–
C=CC(=O)Nc1cc(Nc2cc(-c3cccc(NC(=O)c4ccc(N(C)C)cc4)c3C)cn(C)c2=O)ccc1C(=O)N(CCOCC)CCOCC,3190,–
C=CC(=O)Nc1cc(Nc2cc(-c3cccc(NC(=O)c4ccc(C)cc4)c3C)cn(C)c2=O)ccc1C(=O)N1CCOCC1,114,–
Cc1c(NC(=O)c2ccc(C(C)(C)C)cc2)cccc1-c1cc(Nc2ccc(C(=O)N3CCOCC3)c(NC(=O)CCl)c2)c(=O)n(C)c1,63,–
C=CC(=O)Nc1cc(Nc2cc(-c3cccc(NC(=O)c4ccc(N(C)C)cc4)c3C)cn(C)c2=O)ccc1C(=O)N1CCCC(O)C1 (stereo unspecified),244,–
C=CC(=O)Nc1cc(Nc2cc(-c3cccc(NC(=O)c4ccc(C(C)(C)C)cc4)c3C)cn(C)c2=O)ccc1C(=O)N1CCN(C(=O)OC(C)(C)C)CC1,68,–
C=CC(=O)Nc1cc(Nc2cc(-c3cccc(NC(=O)c4cccc(C(F)(F)F)c4)c3C)cn(C)c2=O)ccc1C(=O)N1CCOCC1,> 10000,–
C=CC(=O)Nc1cc(Nc2cc(-c3cccc(NC(=O)c4ccc5c(c4)OCO5)c3C)cn(C)c2=O)ccc1C(=O)N1CCOCC1,282,–
C=CC(=O)Nc1cc(Nc2cc(-c3cccc(NC(=O)c4cccc(OC)c4)c3C)cn(C)c2=O)ccc1C(=O)N1CCOCC1,1190,–
C=CC(=O)NC1CCN(c2cc(-c3cccc(NC(=O)c4ccc(N(C)C)cc4)c3C)cn(C)c2=O)CC1,> 10000,–
C=CC(=O)Nc1cccc(Nc2ncc(NC(=O)c3cc(NC(=O)c4cccc(C(F)(F)F)c4)ccc3C)cn2)c1,–,IC50 [2]: 1700 nM; IC50 [3]: 72 nM
C=CC(=O)Nc1cc(Nc2cc(-c3cccc(NC(=O)c4ccc(CC)cc4)c3C)cn(C)c2=O)ccc1C(=O)N1CCOCC1,210,–
C=CC(=O)Nc1cc(Nc2cc(-c3cccc(NC(=O)c4ccc(OC)cc4)c3C)cn(C)c2=O)ccc1C(=O)N1CCOCC1,2610,–
C=CC(=O)Nc1ccc(NC(=O)c2ccc(C(C)(C)C)cc2)c(C)c1-c1cc(Nc2ccc(C(=O)N3CCOCC3)cc2)c(=O)n(C)c1,1700,–
C=CC(=O)N1CCCC(Nc2cc(-c3cccc(NC(=O)c4ccc(N(C)C)cc4)c3C)cn(C)c2=O)C1 (stereo unspecified),> 10000,–
C=CC(=O)N1CCC[C@@H](n2nc(-c3ccc(Oc4ccccc4)cc3)c3c(N)ncnc32)C1 [IBRUTINIB],–,GI50 (SU-DHL-2): 640 nM; GI50 (MV4-11): 250 nM; GI50 (U2932 [4]): 4400 nM; GI50 (Ramos): 3400 nM; GI50 (OCI-AML-3): 9200 nM; GI50 (Pfeiffer [5]): 1600 nM; GI50 (U-937): 2900 nM; GI50 (NB-4): 3000 nM; GI50 (SKM-1): 3600 nM; GI50 [6]: 590 nM; Activity (PBMC): Non-Toxic; Activity (Pfeiffer [7]): Active; Activity (U2932 [8]): Active
C=CC(=O)Nc1cc(Nc2cc(-c3cccc(NC(=O)c4ccc(C(C)(C)C)cc4)c3C)cn(C)c2=O)ccc1C(=O)NC1CC1,41,–
